{"source": "patent US8580794B2", "about": "(AbbVie Inc., priority 2009, dated 2013)", "data": [{"molecular_target": "GST-Bc1-2 (Homo sapiens, UniProt P10415)", "sequence (P10415 whole entry)": "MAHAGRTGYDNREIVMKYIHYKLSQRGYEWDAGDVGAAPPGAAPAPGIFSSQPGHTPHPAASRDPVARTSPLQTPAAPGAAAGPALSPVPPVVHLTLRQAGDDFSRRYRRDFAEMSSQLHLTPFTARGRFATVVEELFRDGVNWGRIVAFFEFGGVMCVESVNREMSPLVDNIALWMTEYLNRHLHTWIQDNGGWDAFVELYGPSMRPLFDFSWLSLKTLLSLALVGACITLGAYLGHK", "assay": "Time Resolved-Fluorescence Resonance Energy Transfer (TR-FRET) Bcl-2 binding assay with F-Bak peptide probe", "conditions": "GST-Bcl-2 1 nM, F-Bak probe 100 nM, Tb-anti-GST 1 nM; '<' = below limit of detection; read-out: TR-FRET Bcl-2 Binding Ki", "units": {"Ki": "nM"}, "values": [{"molecule": "COC1(COc2ccc(S(=O)(=O)NC(=O)c3ccc(N4CCN(CC5=C(c6ccc(Cl)cc6)CC(C)(C)CC5)CC4)cc3Oc3cnc4[nH]ccc4c3)cc2[N+](=O)[O-])CCOCC1", "note": "[Example 234, 4-(4-{[2-(4-chlorophenyl)-4,4-dimethylcyclohex-1-en-1-yl]methyl}piperazin-1-yl)-N-({4-[(4-methoxytetrahydro-2H-pyran-4-yl)methoxy]-3-nitrophenyl}sulfonyl)-2-(1H-pyrrolo[2,3-b]pyridin-5-yloxy)benzamide]", "Ki": 0.115}, {"molecule": "CC1(C)CCC(CN2CCN(c3ccc(C(=O)NS(=O)(=O)c4ccc(NCC5COCCO5)c([N+](=O)[O-])c4)c(Oc4cnc5[nH]ccc5c4)c3)CC2)=C(c2ccc(Cl)cc2)C1", "note": "(centres unmarked) [Example 25, 4-(4-{[2-(4-chlorophenyl)-4,4-dimethylcyclohex-1-en-1-yl]methyl}piperazin-1-yl)-N-({4-[(1,4-dioxan-2-ylmethyl)amino]-3-nitrophenyl}sulfonyl)-2-(1H-pyrrolo[2,3-b]pyridin-5-yloxy)benzamide]", "Ki": "< 0.01"}, {"molecule": "O=C(NS(=O)(=O)c1ccc(NCC2CCOCC2)c([N+](=O)[O-])c1)c1ccc(N2CCC(F)(Cc3ccccc3-c3ccc(Cl)cc3)CC2)cc1Oc1cnc2[nH]ccc2c1", "note": "[Example 271, 4-{4-[(4′-chlorobiphenyl-2-yl)methyl]-4-fluoropiperidin-1-yl}-N-({3-nitro-4-[(tetrahydro-2H-pyran-4-ylmethyl)amino]phenyl}sulfonyl)-2-(1H-pyrrolo[2,3-b]pyridin-5-yloxy)benzamide]", "Ki": 0.039}, {"molecule": "O=C(NS(=O)(=O)c1ccc(NCC2CCOCC2)c([N+](=O)[O-])c1)c1ccc(N2CCN(CC3=C(c4ccc(Cl)cc4)CCC4(CCN(C(CF)CF)CC4)C3)CC2)cc1Oc1cnc2[nH]ccc2c1", "note": "[Example 265, 4-(4-{[9-(4-chlorophenyl)-3-(1,3-difluoropropan-2-yl)-3-azaspiro[5.5]undec-8-en-8-yl]methyl}piperazin-1-yl)-N-({3-nitro-4-[(tetrahydro-2H-pyran-4-ylmethyl)amino]phenyl}sulfonyl)-2-(1H-pyrrolo[2,3-b]pyridin-5-yloxy)benzamide]", "Ki": "< 0.01"}, {"molecule": "COc1ccc(CNc2ccc(S(=O)(=O)NC(=O)c3ccc(N4CCN(CC5=C(c6ccc(Cl)cc6)CC(C)(C)CC5)CC4)cc3Oc3cnc4[nH]ccc4c3)cc2[N+](=O)[O-])cc1", "note": "[Example 174, 4-(4-{[2-(4-chlorophenyl)-4,4-dimethylcyclohex-1-en-1-yl]methyl}piperazin-1-yl)-N-({4-[(4-methoxybenzyl)amino]-3-nitrophenyl}sulfonyl)-2-(1H-pyrrolo[2,3-b]pyridin-5-yloxy)benzamide]", "Ki": "< 0.01"}, {"molecule": "COCCN1CCOC(CNc2ccc(S(=O)(=O)NC(=O)c3ccc(N4CCN(CC5=C(c6ccc(Cl)cc6)CC(C)(C)CC5)CC4)cc3Oc3cnc4[nH]ccc4c3)cc2[N+](=O)[O-])C1", "note": "(centres unmarked) [Example 135, 4-(4-{[2-(4-chlorophenyl)-4,4-dimethylcyclohex-1-en-1-yl]methyl}piperazin-1-yl)-N-{[4-({[4-(2-methoxyethyl)morpholin-2-yl]methyl}amino)-3-nitrophenyl]sulfonyl}-2-(1H-pyrrolo[2,3-b]pyridin-5-yloxy)benzamide]", "Ki": "< 0.01"}, {"molecule": "CC(=O)N1CCC(CNc2ccc(S(=O)(=O)NC(=O)c3ccc(N4CCN(CC5=C(c6ccc(Cl)cc6)CC(C)(C)CC5)CC4)cc3Oc3cnc4[nH]ccc4c3)cc2[N+](=O)[O-])C1", "note": "(centres unmarked) [Example 153, N-[(4-{[(1-acetylpyrrolidin-3-yl)methyl]amino}-3-nitrophenyl)sulfonyl]-4-(4-{[2-(4-chlorophenyl)-4,4-dimethylcyclohex-1-en-1-yl]methyl}piperazin-1-yl)-2-(1H-pyrrolo[2,3-b]pyridin-5-yloxy)benzamide]", "Ki": "< 0.01"}, {"molecule": "CCN1CCOCC1COc1ccc(S(=O)(=O)NC(=O)c2ccc(N3CCN(CC4=C(c5ccc(Cl)cc5)CC(C)(C)CC4)CC3)cc2Oc2cnc3[nH]ccc3c2)cc1[N+](=O)[O-]", "note": "(centres unmarked) [Example 103, 4-(4-{[2-(4-chlorophenyl)-4,4-dimethylcyclohex-1-en-1-yl]methyl}piperazin-1-yl)-N-({4-[(4-ethylmorpholin-3-yl)methoxy]-3-nitrophenyl}sulfonyl)-2-(1H-pyrrolo[2,3-b]pyridin-5-yloxy)benzamide]", "Ki": "< 0.01"}, {"molecule": "CN1CCC(CNc2ccc(S(=O)(=O)NC(=O)c3ccc(N4CCN(CC5=C(c6ccc(Cl)cc6)CC(C)(C)CC5)CC4)cc3Oc3cnc4[nH]ccc4c3)cc2[N+](=O)[O-])CC1", "note": "[Example 65, 4-(4-{[2-(4-chlorophenyl)-4,4-dimethylcyclohex-1-en-1-yl]methyl}piperazin-1-yl)-N-[(4-{[(1-methylpiperidin-4-yl)methyl]amino}-3-nitrophenyl)sulfonyl]-2-(1H-pyrrolo[2,3-b]pyridin-5-yloxy)benzamide]", "Ki": "< 0.01"}, {"molecule": "CC1(C)CCC(CN2CCN(c3ccc(C(=O)NS(=O)(=O)c4cnc(OCC5(F)CCN(CC(F)F)CC5)c(Cl)c4)c(Oc4cnc5[nH]ccc5c4)c3)CC2)=C(c2ccc(Cl)cc2)C1", "note": "[Example 285, N-[(5-chloro-6-{[1-(2,2-difluoroethyl)-4-fluoropiperidin-4-yl]methoxy}pyridin-3-yl)sulfonyl]-4-(4-{[2-(4-chlorophenyl)-4,4-dimethylcyclohex-1-en-1-yl]methyl}piperazin-1-yl)-2-(1H-pyrrolo[2,3-b]pyridin-5-yloxy)benzamide]", "Ki": "< 0.01"}, {"molecule": "CC1(C)CCC(CN2CCN(c3ccc(C(=O)NS(=O)(=O)c4ccc(NCCCN(CC(F)(F)F)C5CC5)c([N+](=O)[O-])c4)c(Oc4cnc5[nH]ccc5c4)c3)CC2)=C(c2ccc(Cl)cc2)C1", "note": "[Example 308, 4-(4-{[2-(4-chlorophenyl)-4,4-dimethylcyclohex-1-en-1-yl]methyl}piperazin-1-yl)-N-{[4-({3-[cyclopropyl(2,2,2-trifluoroethyl)amino]propyl}amino)-3-nitrophenyl]sulfonyl}-2-(1H-pyrrolo[2,3-b]pyridin-5-yloxy)benzamide]", "Ki": 0.141}, {"molecule": "CC(C)N1CCC2(CCC(c3ccc(Cl)cc3)=C(CN3CCN(c4ccc(C(=O)NS(=O)(=O)c5cnc(OCC6CCOCC6)c(Cl)c5)c(Oc5cnc6[nH]ccc6c5)c4)CC3)C2)CC1", "note": "[Example 268, 4-(4-{[9-(4-chlorophenyl)-3-isopropyl-3-azaspiro[5.5]undec-8-en-8-yl]methyl}piperazin-1-yl)-N-{[5-chloro-6-(tetrahydro-2H-pyran-4-ylmethoxy)pyridin-3-yl]sulfonyl}-2-(1H-pyrrolo[2,3-b]pyridin-5-yloxy)benzamide]", "Ki": "< 0.01"}, {"molecule": "C#Cc1cc(S(=O)(=O)NC(=O)c2ccc(N3CCN(CC4=C(c5ccc(Cl)cc5)CC(C)(C)CC4)CC3)cc2Oc2cnc3[nH]ccc3c2)cnc1OCC1CCOCC1", "note": "[Example 69, 4-(4-{[2-(4-chlorophenyl)-4,4-dimethylcyclohex-1-en-1-yl]methyl}piperazin-1-yl)-N-{[5-ethynyl-6-(tetrahydro-2H-pyran-4-ylmethoxy)pyridin-3-yl]sulfonyl}-2-(1H-pyrrolo[2,3-b]pyridin-5-yloxy)benzamide]", "Ki": 1.16}, {"molecule": "CC1(C)CCC(CN2CCN(c3ccc(C(=O)NS(=O)(=O)c4cnc(OCC5CCc6nccn6C5)c(Cl)c4)c(Oc4cnc5[nH]ccc5c4)c3)CC2)=C(c2ccc(Cl)cc2)C1", "note": "(centres unmarked) [Example 342, 4-(4-{[2-(4-chlorophenyl)-4,4-dimethylcyclohex-1-en-1-yl]methyl}piperazin-1-yl)-N-{[5-chloro-6-(5,6,7,8-tetrahydroimidazo[1,2-a]pyridin-6-ylmethoxy)pyridin-3-yl]sulfonyl}-2-(1H-pyrrolo[2,3-b]pyridin-5-yloxy)benzamide]", "Ki": "< 0.01"}, {"molecule": "CC1(C)CCC(CN2CCN(c3ccc(C(=O)NS(=O)(=O)c4ccc(OCC5(F)CCN(C6CCOC6)CC5)c([N+](=O)[O-])c4)c(Oc4cnc5[nH]ccc5c4)c3)CC2)=C(c2ccc(Cl)cc2)C1", "note": "(centres unmarked) [Example 193, 4-(4-{[2-(4-chlorophenyl)-4,4-dimethylcyclohex-1-en-1-yl]methyl}piperazin-1-yl)-N-({4-[(4-fluoro-1-tetrahydrofuran-3-ylpiperidin-4-yl)methoxy]-3-nitrophenyl}sulfonyl)-2-(1H-pyrrolo[2,3-b]pyridin-5-yloxy)benzamide]", "Ki": "< 0.01"}, {"molecule": "CC1(C)CCC(CN2CCN(c3ccc(C(=O)NS(=O)(=O)c4ccc(N[C@H]5CCN(C6CCOCC6)C5)c([N+](=O)[O-])c4)c(Oc4cnc5[nH]ccc5c4)c3)CC2)=C(c2ccc(Cl)cc2)C1", "note": "[Example 132, 4-(4-{[2-(4-chlorophenyl)-4,4-dimethylcyclohex-1-en-1-yl]methyl}piperazin-1-yl)-N-[(3-nitro-4-{[(3S)-1-tetrahydro-2H-pyran-4-ylpyrrolidin-3-yl]amino}phenyl)sulfonyl]-2-(1H-pyrrolo[2,3-b]pyridin-5-yloxy)benzamide]", "Ki": "< 0.01"}, {"molecule": "CC1(C)CCC(CN2CCN(c3ccc(C(=O)NS(=O)(=O)c4ccc(NC[C@H]5CC[C@@H](O)C5)c([N+](=O)[O-])c4)c(Oc4cnc5[nH]ccc5c4)c3)CC2)=C(c2ccc(Cl)cc2)C1", "note": "[Example 158, 4-(4-{[2-(4-chlorophenyl)-4,4-dimethylcyclohex-1-en-1-yl]methyl}piperazin-1-yl)-N-{[4-({[(1S,3R)-3-hydroxycyclopentyl]methyl}amino)-3-nitrophenyl]sulfonyl}-2-(1H-pyrrolo[2,3-b]pyridin-5-yloxy)benzamide]", "Ki": "< 0.01"}, {"molecule": "O=C(NS(=O)(=O)c1ccc(NCC2CCOCC2)c([N+](=O)[O-])c1)c1ccc(N2CCN(Cc3ccccc3-c3ccc(Cl)cc3)CC2)cc1Oc1cnc2[nH]ccc2c1", "note": "[Example 1, 4-{4-[(4′-chloro-1,1′-biphenyl-2-yl)methyl]piperazin-1-yl}-N-({3-nitro-4-[(tetrahydro-2H-pyran-4-ylmethyl)amino]phenyl}sulfonyl)-2-(1H-pyrrolo[2,3-b]pyridin-5-yloxy)benzamide]", "Ki": 0.225}, {"molecule": "CC1(C)CCC(CN2CCN(c3ccc(C(=O)NS(=O)(=O)c4ccc(N[C@H]5CC[C@@H](NC6CC6)CC5)c([N+](=O)[O-])c4)c(Oc4cnc5[nH]ccc5c4)c3)CC2)=C(c2ccc(Cl)cc2)C1", "note": "[Example 122, Cis-4-(4-{[2-(4-chlorophenyl)-4,4-dimethylcyclohex-1-en-1-yl]methyl}piperazin-1-yl)-N-[(4-{[4-(cyclopropylamino)cyclohexyl]amino}-3-nitrophenyl)sulfonyl]-2-(1H-pyrrolo[2,3-b]pyridin-5-yloxy)benzamide]", "Ki": "< 0.01"}]}, {"molecular_target": "GST-Bc1-2 (Homo sapiens, UniProt P10415)", "assay": "Time Resolved-Fluorescence Resonance Energy Transfer (TR-FRET) Bcl-2 binding assay with F-Bak peptide probe", "conditions": "Table 5, direct comparison Z=N vs Z=C analogs; read-out: Bcl-2 FRET ki", "units": {"Ki": "nM"}, "values": [{"molecule": "O=C(NS(=O)(=O)c1ccc(NCC2CCOCC2)c([N+](=O)[O-])c1)c1ccc(N2CCN(Cc3ccccc3-c3ccc(Cl)cc3)CC2)cc1Oc1cnc2[nH]ccc2c1", "note": "[Example 1, 4-{4-[(4′-chloro-1,1′-biphenyl-2-yl)methyl]piperazin-1-yl}-N-({3-nitro-4-[(tetrahydro-2H-pyran-4-ylmethyl)amino]phenyl}sulfonyl)-2-(1H-pyrrolo[2,3-b]pyridin-5-yloxy)benzamide]", "Ki": 0.225}]}]}
